Test results from PubChem BioAssay AID844 (SRMLSC, 2007).
Activity calls are given as the source filed them. How the calls were made is not given here.

System: MRP1 cells, doxorubicin viability shift, 10 uM compound
Assay: viability protection against doxorubicin, MRP-1 line – cell-based, doxorubicin EC50 shift, dose response (AID 844)
Conditions: for EC50: measured here: doxorubicin EC50 with compound

Row | SMILES | fold increase in Dox EC50 | EC50
1 | Cc1ccc(C)c(/C(O)=C2\C(=O)C(=O)N(CCCn3ccnc3)C2c2ccncc2)c1 (configuration not stated) | 1.17 (inactive) | 6.31 µM
2 | Cc1cccc(NC(=O)/C(=C\c2ccc([N+](=O)[O-])o2)NC(=O)c2ccc(Cl)cc2)c1 | 0.75 (inactive) | 4.04 µM
3 | CSC1=NP(=S)(SC)N2CCCC2=C1C#N (configuration not stated) | 0.97 (inactive) | 5.24 µM
4 | CCC1(C)Cc2c(sc3nnn(Cc4ccccc4Cl)c(=O)c23)CO1 (configuration not stated) | 0.81 (inactive) | 4.35 µM
5 | CCCCOc1ccc(C(=O)Oc2ccc(C)nc2)cc1 | 0.9 (inactive) | 4.88 µM
6 | O=C(COc1ccc(Cl)cc1)N1CCN(Cc2ccccc2)CC1 | 1.38 (inactive) | 7.48 µM
7 | CC(C)(C)c1ccc(C(=O)CSc2ncn[nH]2)cc1 | 0.82 (inactive) | 4.41 µM
8 | CCN(CC)S(=O)(=O)c1ccc2c(c1)nc(SCn1nnc3ccccc3c1=O)n2CC | 0.52 (inactive) | 2.79 µM
9 | O=C(Nc1nc(-c2cccc([N+](=O)[O-])c2)cs1)C(c1ccccc1)c1ccccc1 | 1.69 | 9.1 µM
10 | CCOC(=O)c1cc(-c2ccccc2)sc1NC(=O)C(C)Sc1nnc(N)s1 (configuration not stated) | 0.73 (inactive) | 3.92 µM
11 | C=C1c2cc(CC)ccc2NC(=O)N1c1ccc(C)cc1 | 0.44 (inactive) | 2.37 µM
12 | CSc1ncc(Cl)c(C(=O)Nc2nnc(SC)s2)n1 | 1.12 (inactive) | 6.07 µM
13 | COc1ccccc1NC(=O)CSC(N)=O | 0.81 (inactive) | 4.4 µM
14 | O=C(c1ccccc1)C(Sc1ncn[nH]1)c1ccccc1 (configuration not stated) | 0.68 (inactive) | 3.7 µM
15 | CCC(Sc1nc(-c2ccccc2)c(C#N)c(=O)[nH]1)C(=O)Nc1cc(C)on1 (configuration not stated) | 1.56 | 8.41 µM
16 | Cn1c(=O)c2c(nc(CN3CCOCC3)n2CCc2ccccc2)n(C)c1=O | 0.31 (inactive) | 1.68 µM
17 | CCCCCCCC1CC(CSc2ncn[nH]2)OC1=O (configuration not stated) | 0.94 (inactive) | 5.08 µM
18 | Cc1ccc(C(=O)CCC(=O)Nc2ccc(Cl)c(S(=O)(=O)Nc3cccc(Cl)c3)c2)cc1 | 1.15 (inactive) | 6.21 µM
19 | N#Cc1nc(COc2ccc(Br)cc2)oc1N1CCCCCC1 | 0.78 (inactive) | 4.21 µM
20 | CCc1nnc(NC(=O)c2ccc(S(=O)(=O)N3CCCCCC3)cc2)s1 | 0.9 (inactive) | 4.88 µM
21 | CCN(Cc1ccccc1)C(=O)CSc1nc(C)cc(C)c1C#N | 0.59 (inactive) | 3.19 µM
22 | COc1ccc(NC(=O)CCCC2CCCCC2)cc1S(=O)(=O)N1CCCCC1 | 1.68 | 9.05 µM
23 | COc1ccc(OC)c(-c2cc(C(=O)Nc3c(C)nn(Cc4ccccc4C)c3C)no2)c1 | 0.65 (inactive) | 3.49 µM
24 | Cc1cc(C(=O)OCC(=O)Nc2ccc(F)c(F)c2)c(C)o1 | 1.76 | 9.53 µM
25 | CC(/C=N\NC(=O)CN1CCN(S(=O)(=O)c2ccc(C)cc2)CC1)=C\c1ccccc1 | 1.26 (inactive) | 6.79 µM
26 | N#Cc1c(-c2ccco2)nc(SCC(=O)Nc2cccc(Cl)c2)[nH]c1=O | 1.33 (inactive) | 7.17 µM

Row | SMILES | fold increase in Dox EC50 | EC50
27 | O=C(COc1ccc(F)cc1)Nc1ccc(-n2cnnn2)cc1 | 0.75 (inactive) | 4.04 µM
28 | CCOc1ccc(C2CC(c3ccc(F)cc3)Nc3nc(N)nn32)cc1 (configuration not stated) | 0.55 (inactive) | 2.95 µM
29 | O=C(Nc1nnc(COc2ccc(Cl)cc2)s1)C1CCCO1 (configuration not stated) | 1.2 (inactive) | 6.46 µM
30 | O=C(/C=C/NNC(=O)c1ccccc1)c1ccc(Br)cc1 | 0.53 (inactive) | 2.86 µM
31 | C=CCSC1=NC(=O)/C(=C/c2cccs2)S1 | 1.13 (inactive) | 6.1 µM
32 | CN=c1scc(C)n1/N=C/c1ccc(O)c(O)c1O | 0.92 (inactive) | 4.95 µM
33 | Cc1c(C(=O)OC(C)C)sc(N)c1C(=O)OC(C)C | 0.94 (inactive) | 5.08 µM
34 | NNC(=O)CNC(c1ccccc1)c1cc(Br)ccc1NC(=O)c1cccc(Cl)c1 (configuration not stated) | 1.21 (inactive) | 6.53 µM
35 | NC(=O)C1(N2CCCCC2)CCN(C(=O)c2cccn3c(=O)c4cc(Cl)ccc4nc23)CC1 | 0.7 (inactive) | 3.79 µM
36 | N#Cc1c(-c2ccccc2)nc(SCC(=O)Nc2ccccc2F)[nH]c1=O | 1.79 | 9.66 µM
37 | CCCC(=O)NC(=S)Nc1ccc(C(C)=O)cc1 | 0.46 (inactive) | 2.48 µM
38 | Cc1ccc(/C=C2\SC(=S)N(CCC(=O)NNS(=O)(=O)c3ccc(C)cc3)C2=O)cc1 | 0.48 (inactive) | 2.6 µM
39 | CC(=O)Nc1ccc(-n2c(C)nc(=O)c(-c3ccccc3)c2C)cc1 | 0.89 (inactive) | 4.83 µM
40 | Cc1ccc(S(=O)(=O)N2CCC(C(=O)N[C@@H](C)C(=O)Nc3ccc4c(c3)OCO4)CC2)cc1 | 1.43 (inactive) | 7.7 µM
41 | COc1ccc(C(=O)NCCn2cc(SCC(=O)Nc3nnc(C)s3)c3ccccc32)cc1 | 0.5 (inactive) | 2.72 µM
42 | O=C(CC1SC(=O)N(Cc2ccccc2)C1=O)Nc1nccs1 (configuration not stated) | 1.82 | 9.84 µM
43 | CCOC(=O)CSc1nc(N)nc(C)c1Br | 0.78 (inactive) | 4.2 µM
44 | CC(C)CCC1CC(CSC(=N)N)OC1=O (configuration not stated) | 0.68 (inactive) | 3.68 µM
45 | Cc1c(NC(=O)CSc2ccc(Cl)cc2)cccc1-c1nc2ncccc2o1 | 0.99 (inactive) | 5.34 µM
46 | COc1cccc(-c2csc(NC(=O)C3CC3)n2)c1 | 0.84 (inactive) | 4.55 µM
47 | O=c1[nH]c(C2CCCN(S(=O)(=O)c3ccccc3)C2)nc2c1nnn2Cc1ccccc1 (configuration not stated) | 0.11 (inactive) | 0.603 µM
48 | Cc1noc(/C=C/N(C)C)c1S(=O)(=O)N1CCCC(C(=O)NC2CCCCC2)C1 (configuration not stated) | 0.97 (inactive) | 5.23 µM
49 | O=C(NC(=S)Nc1ccccc1N1CCOCC1)c1ccc(-c2cc(Cl)ccc2Cl)o1 | 1 (inactive) | 5.42 µM
50 | COc1ccc(C2C(C(=O)Nc3cccc(C)n3)CCC(=O)N2c2ccc(OC)cc2)cc1 (configuration not stated) | 0.64 (inactive) | 3.44 µM
51 | O=C(NCC(F)(F)F)Nc1nnc(C(F)(F)F)s1 | 1.54 | 8.33 µM
52 | COc1ccc(NC(=O)COC(=O)c2c3c(nc4ccccc24)CCCC3)cc1Cl | 0.68 (inactive) | 3.65 µM

Row | SMILES | fold increase in Dox EC50 | EC50
53 | Cc1nnc(NC(=O)C(C)Oc2ccc3c(C)cc(=O)oc3c2)s1 (configuration not stated) | 1.29 (inactive) | 6.99 µM
54 | c1ccc(C(c2ccccc2)N2CCN(c3nc4ccccc4n4cnnc34)CC2)cc1 | 0.81 (inactive) | 4.39 µM
55 | Cc1noc(/C=C/N(C)C)c1S(=O)(=O)N1CCCC(C(=O)N2CCCCC2)C1 (configuration not stated) | 0.74 (inactive) | 3.98 µM
56 | O=C(CC(NC(=O)C(F)(F)F)c1ccccc1)Nc1nnc(CCc2ccccc2)s1 (configuration not stated) | 1.85 | 9.97 µM
57 | Cn1cc(Br)c(C(=O)NNC(=O)c2ccc(Cl)cc2)n1 | 1.23 (inactive) | 6.63 µM
58 | COc1ccc(/C=N\NC(=O)c2cc(O)c(O)c(O)c2)cc1CN1CCN(c2ccc(F)cc2)CC1 | 0.69 (inactive) | 3.74 µM
59 | N#CC1=C2C=Cc3ccccc3N2CCCC1=O | 1.28 (inactive) | 6.9 µM
60 | CCc1ccc(-c2nc(-c3ccncc3)no2)cc1 | 0.89 (inactive) | 4.82 µM
61 | Cc1cccc(C)c1-n1c(C)cc(/C=C2\C(=O)NN(c3ccccc3)C2=O)c1C | 0.63 (inactive) | 3.39 µM
62 | COC(=O)c1cnn(-c2cc(Oc3ccccc3)ncn2)c1N | 0.76 (inactive) | 4.11 µM
63 | COC(=O)c1ccc(OC)c(CSc2nnc(COc3ccc(Cl)cc3)o2)c1 | 1.44 (inactive) | 7.77 µM
64 | Oc1c(C(c2cccs2)N2CCN(c3cccc(Cl)c3)CC2)sc2ncnn12 (configuration not stated) | 0.68 (inactive) | 3.68 µM
65 | COc1ccc(NC(=O)c2oc3ccccc3c2NC(=O)C(C)(C)C)cc1 | 0.63 (inactive) | 3.41 µM
66 | CCC(Sc1nc(-c2ccccc2)c(C#N)c(=O)[nH]1)C(=O)Nc1nnc(C)s1 (configuration not stated) | 1.82 | 9.85 µM
67 | CC(=O)NN1C(=O)/C(=C\c2ccc(C)cc2)SC1=S | 1.47 (inactive) | 7.96 µM
68 | CC(=O)N1CCN=C1SCc1ccc(C)cc1 | 0.87 (inactive) | 4.67 µM
69 | CCOc1ccc(OCC)c(-c2c(=O)n(OCc3ccc(Cl)cc3)c3ccccc3[n+]2[O-])c1 | 0.53 (inactive) | 2.86 µM
70 | O=C(COc1cccnc1[N+](=O)[O-])Nc1ccc2c(c1)OC(F)(F)O2 | 0.7 (inactive) | 3.8 µM
71 | O=C1NC(=Nc2ccc(Cl)cc2)SC1Cc1cc(Cl)ccc1Cl (configuration not stated) | 1.09 (inactive) | 5.86 µM
72 | O=C(Nc1ccc(O)cc1)C1CCCO1 (configuration not stated) | 0.91 (inactive) | 4.92 µM
73 | COc1ccc(CCNC(=O)CSCc2ccc(Cl)cc2)cc1OC | 0.67 (inactive) | 3.59 µM
74 | O=C1CC(N2CCC(c3nc4ccccc4o3)CC2)C(=O)N1c1cc(Cl)cc(Cl)c1 (configuration not stated) | 1.36 (inactive) | 7.36 µM
75 | CC1CCc2c(sc3nc(CSc4ncn[nH]4)[nH]c(=O)c23)C1 (configuration not stated) | 0.81 (inactive) | 4.4 µM
76 | CCOc1ccc(NC(=O)N2CCC(n3c(=O)[nH]c4ccccc43)CC2)cc1 | 0.9 (inactive) | 4.85 µM
